ChEMBL document CHEMBL1201862, “PubChem BioAssay data set” (2004)
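All cell lines were grown in 96-well plates and treated with compound for 48 hours. The concentration for 50% growth inhibition is given as GI50.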 Active and inactive are the calls of the source. Rule as the data show it: active = GI50 up to about 1.1 µM and inactive = higher.

What was measured:
Experiment in all cases: NCI-60 cell line screen, 48 h
786-0 = test system: 786-0
A498 = test system: A498
A549 = test system: A549
BT-549 = test system: BT-549
CCRF-CEM = test system: CCRF-CEM
EKVX = test system: EKVX
IGROV-1 = test system: IGROV-1
MDA-N = test system: MDA-N
Malme-3M = test system: Malme-3M
NCI-H522 = test system: NCI-H522
NCI/ADR-RES = test system: NCI/ADR-RES
OVCAR-3 = test system: OVCAR-3
SF-295 = test system: SF-295
SK-MEL-28 = test system: SK-MEL-28
SK-MEL-5 = test system: SK-MEL-5
SNB-19 = test system: SNB-19
SNB-75 = test system: SNB-75
TK-10 = test system: TK-10
UACC-257 = test system: UACC-257
UACC-62 = test system: UACC-62

Measured: GI50

CCc1c[n+]([O-])c(C)cc1[N+](=O)[O-]
inactive: 786-0 97.1 µM | A498 > 100 µM | A549 56.1 µM | BT-549 > 100 µM | CCRF-CEM > 100 µM | EKVX 29.6 µM | IGROV-1 > 100 µM | MDA-N 44.2 µM | Malme-3M 40.1 µM | NCI-H522 55.3 µM | NCI/ADR-RES > 100 µM | OVCAR-3 > 100 µM | SF-295 > 100 µM | SK-MEL-28 > 100 µM | SK-MEL-5 > 100 µM | SNB-19 > 100 µM | SNB-75 78.3 µM | TK-10 35.2 µM | UACC-257 > 100 µM | UACC-62 49.9 µM

CCN(CC)/N=C\c1c2ccccc2cc2ccccc12
inactive: 786-0 44.2 µM | A498 41 µM | A549 41.6 µM | BT-549 84.7 µM | CCRF-CEM 31.3 µM | EKVX 38.4 µM | IGROV-1 39.4 µM | MDA-N 39 µM | Malme-3M 49.8 µM | NCI-H522 21 µM | NCI/ADR-RES 79.4 µM | SF-295 39 µM | SK-MEL-28 11.9 µM | SK-MEL-5 21.8 µM | SNB-19 > 100 µM | SNB-75 18.3 µM | TK-10 55 µM | UACC-257 27.9 µM | UACC-62 53.6 µM

CCOC(=O)C(Cc1cccn1C(=O)OC(C)(C)C)[N+](=O)[O-] (centres undefined)
inactive: 786-0 21.9 µM | A498 23.5 µM | A549 32 µM | BT-549 30.8 µM | CCRF-CEM 17.1 µM | EKVX 48.3 µM | IGROV-1 21.5 µM | MDA-N 26.7 µM | Malme-3M 28.1 µM | NCI-H522 19.6 µM | NCI/ADR-RES 44.7 µM | OVCAR-3 32.1 µM | SF-295 30.6 µM | SK-MEL-28 27.4 µM | SK-MEL-5 21.2 µM | SNB-19 25.2 µM | SNB-75 23.7 µM | TK-10 22.3 µM | UACC-257 28.3 µM | UACC-62 21.5 µM

O=C(Nc1ccccc1)c1cc(S(=O)(=O)Nc2n[nH]c(=O)[nH]2)c(SSc2cc(Cl)c(C(=O)Nc3ccccc3)cc2S(=O)(=O)Nc2n[nH]c(=O)[nH]2)cc1Cl
inactive: 786-0 > 100 µM | A498 > 100 µM | A549 > 100 µM | BT-549 > 100 µM | CCRF-CEM > 100 µM | EKVX > 100 µM | IGROV-1 > 100 µM | MDA-N > 100 µM | Malme-3M > 100 µM | NCI-H522 > 100 µM | NCI/ADR-RES > 100 µM | OVCAR-3 > 100 µM | SF-295 > 100 µM | SK-MEL-28 > 100 µM | SK-MEL-5 > 100 µM | SNB-19 > 100 µM | SNB-75 > 100 µM | TK-10 > 100 µM | UACC-257 > 100 µM

Clc1ccc2c(NCCNC3CCCCC3)ccnc2c1
inactive: 786-0 5.47 µM | A498 2.11 µM | A549 13.6 µM | BT-549 10.5 µM | CCRF-CEM 2.81 µM | EKVX 3.31 µM | IGROV-1 11.8 µM | MDA-N 2.29 µM | Malme-3M 1.87 µM | NCI-H522 2.67 µM | NCI/ADR-RES 11.4 µM | OVCAR-3 15 µM | SF-295 3.34 µM | SK-MEL-28 1.86 µM | SK-MEL-5 1.62 µM | SNB-19 15.9 µM | SNB-75 4.63 µM | TK-10 2.7 µM | UACC-62 4.28 µM

O=C(O)c1c2c(cc3c1CC1(Cc4ccccc4C1)C3)CCC2
inactive: 786-0 80 µM | A498 > 100 µM | A549 35.6 µM | BT-549 20.8 µM | CCRF-CEM 23.3 µM | EKVX 40.6 µM | IGROV-1 59.4 µM | MDA-N > 100 µM | Malme-3M 51.3 µM | NCI-H522 49.1 µM | NCI/ADR-RES 35.4 µM | OVCAR-3 68.1 µM | SF-295 > 100 µM | SK-MEL-28 > 100 µM | SK-MEL-5 59.7 µM | SNB-75 > 100 µM | TK-10 > 100 µM | UACC-257 > 100 µM | UACC-62 > 100 µM

CC(C)(C)c1cc(COc2cc(COc3ccc(-c4c5c(nc6c4CCc4ccc(-c7c8ccccc8nc8ccccc78)cc4-6)-c4cc(-c6c7ccccc7nc7ccccc67)ccc4CC5)cc3)cc(OCc3cc(C(C)(C)C)cc(C(C)(C)C)c3)c2)cc(C(C)(C)C)c1
inactive: 786-0 > 100 µM | A498 > 100 µM | A549 > 100 µM | BT-549 > 100 µM | EKVX > 100 µM | MDA-N > 100 µM | Malme-3M 89.3 µM | NCI-H522 > 100 µM | NCI/ADR-RES > 100 µM | OVCAR-3 > 100 µM | SF-295 > 100 µM | SK-MEL-28 > 100 µM | SK-MEL-5 > 100 µM | SNB-19 > 100 µM | SNB-75 > 100 µM | TK-10 > 100 µM | UACC-257 > 100 µM | UACC-62 > 100 µM

O=C(Cc1nc2ccc(C(=O)c3ccccc3)cc2nc1O)C(=O)Nc1ccc(Br)cc1
inactive: 786-0 > 100 µM | A498 > 100 µM | A549 > 100 µM | BT-549 > 100 µM | EKVX > 100 µM | IGROV-1 > 100 µM | MDA-N 39.7 µM | Malme-3M > 100 µM | NCI-H522 48.9 µM | NCI/ADR-RES > 100 µM | OVCAR-3 > 100 µM | SF-295 > 100 µM | SK-MEL-28 > 100 µM | SK-MEL-5 > 100 µM | SNB-75 38 µM | TK-10 > 100 µM | UACC-257 > 100 µM | UACC-62 > 100 µM

N#CC(C#N)=C1c2ccccc2C(=NN)c2ccccc21
inactive: 786-0 > 54.8 µM | A498 > 28.7 µM | BT-549 > 100 µM | CCRF-CEM > 100 µM | IGROV-1 > 100 µM | MDA-N > 100 µM | Malme-3M 92.9 µM | NCI-H522 3.58 µM | NCI/ADR-RES > 100 µM | OVCAR-3 > 100 µM | SF-295 4.83 µM | SK-MEL-28 > 100 µM | SK-MEL-5 14.8 µM | SNB-19 > 100 µM | SNB-75 > 43.9 µM | TK-10 > 100 µM | UACC-257 > 100 µM | UACC-62 > 43.5 µM

O=[As](O)(O)c1ccc(NCc2ccccc2)cc1
inactive: 786-0 > 100 µM | A498 > 100 µM | A549 > 100 µM | BT-549 > 100 µM | EKVX > 100 µM | IGROV-1 > 100 µM | MDA-N > 100 µM | Malme-3M > 100 µM | NCI-H522 76.9 µM | NCI/ADR-RES > 100 µM | OVCAR-3 > 100 µM | SF-295 > 100 µM | SK-MEL-28 > 100 µM | SK-MEL-5 > 100 µM | SNB-19 > 100 µM | SNB-75 > 100 µM | TK-10 > 100 µM | UACC-257 > 100 µM | UACC-62 > 100 µM
